Data reported in patent US20230295212A1 (ROME Therapeutics, Inc., priority 2022, published 2023).
pIC50: −log10 of the molar value.

What follows are molecules tested against T1, LINE1 reverse transcriptase (Homo sapiens, UniProt O00370) (assay: Stable artificial-intron Cis LINE1 reporter assay (HeLa Tet-On 3G, Firefly luciferase)). Details: HeLa L1 artificial-intron reporter cells, doxycycline 500 ng/mL, 72 h, class symbols.
T1 construct: expressed in transfected cells; host or cells: HeLa Tet-On 3G (Takara, cat no 631183)
Assay type: cell-based
Experimental: Exemplary compounds, were tested for the ability to inhibit LINE1 reverse transcriptase using a stable artificial-intron Cis LINE1 reporter assay. Assay procedures and results are described below.
A stable HeLa Tet-On 3G (Takara, cat no 631183) cell line expressing a bi-directional inducible LINE1 construct was generated as described in Xie, Y. et al. “Cell division promotes efficient retrotransposition in a stable L1 reporter cell line,” Mobile DNA (2013) 4:10. Single cell clones were screened for high Luciferase expression and the highest expression Firefly expressing clone was chosen for compound testing.
Test compounds were serially diluted in DMSO and spotted in 96-well plates. Subsequently, the HeLa Li artificial-intron reporter cells were plated into the compound-containing wells (8,000 cells/well), and the cells were induced for reporter expression with doxycycline (Sigma-Aldrich cat #D9891) at a final concentration of 500 ng/mL. Luminescence was measured 72 h after plating using the Dual-Glo Luciferase Assay System (Promega cat #E2940) following the manufacturer's instructions. The Firefly Luciferase activity was used to report LINE1 activity.

T1 sequence (O00370 whole entry, looked up): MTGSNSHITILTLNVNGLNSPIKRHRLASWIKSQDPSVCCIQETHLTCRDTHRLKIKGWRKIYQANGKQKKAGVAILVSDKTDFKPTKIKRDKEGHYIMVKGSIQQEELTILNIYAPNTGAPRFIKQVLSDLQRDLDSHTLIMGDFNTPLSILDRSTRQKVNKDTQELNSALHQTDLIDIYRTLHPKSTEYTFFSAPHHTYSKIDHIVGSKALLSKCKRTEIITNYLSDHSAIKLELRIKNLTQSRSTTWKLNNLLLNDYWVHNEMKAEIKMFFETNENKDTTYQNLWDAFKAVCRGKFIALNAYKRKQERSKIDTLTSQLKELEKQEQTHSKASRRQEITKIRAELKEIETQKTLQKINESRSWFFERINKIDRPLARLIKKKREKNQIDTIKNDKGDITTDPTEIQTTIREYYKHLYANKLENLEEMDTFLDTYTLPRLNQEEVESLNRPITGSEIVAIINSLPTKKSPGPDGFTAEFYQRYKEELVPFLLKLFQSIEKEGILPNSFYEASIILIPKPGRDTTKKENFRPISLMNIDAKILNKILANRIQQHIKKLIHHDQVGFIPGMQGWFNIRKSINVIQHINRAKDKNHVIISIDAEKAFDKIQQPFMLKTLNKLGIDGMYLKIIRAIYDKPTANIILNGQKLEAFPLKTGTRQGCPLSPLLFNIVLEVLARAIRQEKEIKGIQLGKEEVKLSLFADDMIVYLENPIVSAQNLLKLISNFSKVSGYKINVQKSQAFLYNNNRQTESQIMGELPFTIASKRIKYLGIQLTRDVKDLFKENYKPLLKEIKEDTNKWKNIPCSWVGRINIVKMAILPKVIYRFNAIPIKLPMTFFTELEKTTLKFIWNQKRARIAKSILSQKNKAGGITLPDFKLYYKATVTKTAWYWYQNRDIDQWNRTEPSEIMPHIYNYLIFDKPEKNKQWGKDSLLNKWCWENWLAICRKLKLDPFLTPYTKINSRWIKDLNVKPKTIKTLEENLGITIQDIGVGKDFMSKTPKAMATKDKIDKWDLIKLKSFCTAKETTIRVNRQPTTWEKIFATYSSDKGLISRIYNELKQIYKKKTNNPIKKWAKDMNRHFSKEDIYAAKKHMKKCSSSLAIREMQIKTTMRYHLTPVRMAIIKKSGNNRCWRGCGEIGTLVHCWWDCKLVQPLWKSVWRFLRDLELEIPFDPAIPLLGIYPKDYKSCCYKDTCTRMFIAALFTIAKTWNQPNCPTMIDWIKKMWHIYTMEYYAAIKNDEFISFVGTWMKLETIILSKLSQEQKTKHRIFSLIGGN

Row | SMILES | pIC50
1 | CO[C@@H]1[C@H](n2ccc(N)nc2=O)O[C@@](CO)(CCl)[C@H]1O [Compound 13, 4-amino-1-((2R,3S,4S,5R)-5-(chloromethyl)-4-hydroxy-5-(hydroxymethyl)-3-methoxytetrahydrofuran-2-yl)pyrimidin-2(1H)-one] | 6.00 to 6.60
2 | C#C[C@]1(CO)O[C@@H](n2ccc(N)nc2=O)[C@@H](F)[C@@H]1O [Compound 35, 4-amino-1-((2R,3S,4R,5R)-5-ethynyl-3-fluoro-4-hydroxy-5-(hydroxymethyl)tetrahydrofuran-2-yl)pyrimidin-2(1H)-one] | ≥ 7.30
3 | CCC[C@]1(CO)O[C@@H](n2ccc(N)nc2=O)C[C@@H]1O [Compound 60, 4-amino-1-((2R,4S,5R)-4-hydroxy-5-(hydroxymethyl)-5-propyltetrahydrofuran-2-yl)pyrimidin-2(1H)-one] | < 6.00
4 | Nc1cnn([C@H]2C[C@H](O)[C@](CO)(CCl)O2)c(=O)n1 [Compound 18, 5-amino-2-((2R,4S,5R)-5-(chloromethyl)-4-hydroxy-5-(hydroxymethyl)tetrahydrofuran-2-yl)-1,2,4-triazin-3(2H)-one] | < 6.00
5 | O=c1ccn([C@@H]2O[C@@](CO)(CCl)[C@@H](O)[C@H]2F)c(=O)[nH]1 [Compound 29, 1-((2R,3R,4R,5R)-5-(chloromethyl)-3-fluoro-4-hydroxy-5-(hydroxymethyl)tetrahydrofuran-2-yl)pyrimidine-2,4(1H,3H)-dione] | < 6.00
6 | C#C[C@@H]1[C@H](n2ccc(N)nc2=O)O[C@](C)(CO)[C@H]1O [Compound 20, 4-amino-1-((2R,3S,4S,5R)-3-ethynyl-4-hydroxy-5-(hydroxymethyl)-5-methyltetrahydrofuran-2-yl)pyrimidin-2(1H)-one] | < 6.00
7 | Nc1ccn([C@@H]2O[C@@](CO)(C3CC3)[C@@H](O)[C@@H]2F)c(=O)n1 [Compound 121, 4-amino-1-[(2R,3S,4R,5R)-5-cyclopropyl-3-fluoro-4-hydroxy-5-(hydroxymethyl)oxolan-2-yl] pyrimidin-2-one] | 6.60 to 7.00
8 | Cc1cn([C@H]2C[C@H](F)[C@](CO)(CCl)O2)c(=O)[nH]c1=O [Compound 7, 1-((2R,4S,5R)-5-(chloromethyl)-4-fluoro-5-(hydroxymethyl)tetrahydrofuran-2-yl)-5-methylpyrimidine-2,4(1H,3H)-dione] | < 6.00
9 | CC(C)C(=O)OC[C@@]1(CCl)O[C@@H](n2cc(F)c(N)nc2=O)C[C@@H]1OC(=O)C(C)C [Compound 58] | 7.00 to 7.30
10 | C#C[C@]1(CO)O[C@@H](n2cnc3c(N)ncnc32)C[C@@H]1O [Compound 27, (2R,3S,5R)-5-(6-amino-9H-purin-9-yl)-2-ethynyl-2-(hydroxymethyl) tetrahydrofuran-3-ol] | ≥ 7.30
11 | Cc1cn([C@@H]2O[C@@](CO)(CCl)[C@@H](O)[C@H]2F)c(=O)[nH]c1=O [Compound 9, 1-((2R,3R,4R,5R)-5-(chloromethyl)-3-fluoro-4-hydroxy-5-(hydroxymethyl)tetrahydrofuran-2-yl)-5-methylpyrimidine-2,4(1H,3H)-dione] | < 6.00
12 | Nc1ncnc2c1ncn2[C@H]1C[C@H](O)[C@](CO)(CCl)O1 [Compound 15, (2R,3S,5R)-5-(6-amino-9H-purin-9-yl)-2-(chloromethyl)-2-(hydroxymethyl)tetrahydrofuran-3-ol] | 6.00 to 6.60
13 | Cc1cn([C@H]2C[C@H](O)[C@](CO)(CCl)O2)c(=O)[nH]c1=O [Compound 4, 1-((2R,4S,5R)-5-(chloromethyl)-4-hydroxy-5-(hydroxymethyl)tetrahydrofuran-2-yl)-5-methylpyrimidine-2,4(1H,3H)-dione] | < 6.00
14 | C#C[C@]1(CO)O[C@@H](n2ccc(=O)[nH]c2=O)[C@@H](F)[C@@H]1O [Compound 36, 1-((2R,3S,4R,5R)-5-ethynyl-3-fluoro-4-hydroxy-5-(hydroxymethyl)tetrahydrofuran-2-yl)pyrimidine-2,4(1H,3H)-dione] | < 6.00
15 | O=c1nc(NO)ccn1[C@H]1C[C@H](O)[C@](CO)(CCl)O1 [Compound 6, 1-((2R,4S,5R)-5-(chloromethyl)-4-hydroxy-5-(hydroxymethyl)tetrahydrofuran-2-yl)-4-(hydroxyamino)pyrimidin-2(1H)-one] | 6.60 to 7.00

Now from value to molecule:

Row | pIC50 | SMILES
16 | 6.00 to 6.60 | Nc1nc(=O)n([C@@H]2O[C@@](CO)(CF)[C@@H](O)[C@@H]2O)cc1F [Compound 72, 4-amino-5-fluoro-1-((2R,3S,4S,5R)-5-(fluoromethyl)-3,4-dihydroxy-5-(hydroxymethyl)tetrahydrofuran-2-yl)pyrimidin-2(1H)-one]
17 | ≥ 7.30 | Nc1nc(=O)n([C@H]2C[C@H](O)[C@](CO)(CF)O2)cc1F [Compound 22, 4-amino-5-fluoro-1-((2R,4S,5R)-5-(fluoromethyl)-4-hydroxy-5-(hydroxymethyl)tetrahydrofuran-2-yl)pyrimidin-2(1H)-one]
18 | < 6.00 | Nc1nc(=O)n([C@@H]2OC(CO)(CO)[C@@H](O)[C@@H]2F)cc1F [Compound 177, 4-amino-5-fluoro-1-((2R,3S,4R)-3-fluoro-4-hydroxy-5,5-bis(hydroxymethyl)tetrahydrofuran-2-yl) pyrimidin-2(1H)-one]
19 | 6.60 to 7.00 | C=C[C@]1(CO)O[C@@H](n2cc(F)c(N)nc2=O)[C@@H](O)[C@@H]1O [Compound 75, 4-amino-1-((2R,3S,4S,5R)-3,4-dihydroxy-5-(hydroxymethyl)-5-vinyltetrahydrofuran-2-yl)-5-fluoropyrimidin-2(1H)-one]
20 | < 6.00 | Nc1nc(F)nc2c1ncn2[C@@H]1O[C@@](CO)(CF)[C@@H](O)[C@@H]1F [Compound 84]
21 | 7.00 to 7.30 | Nc1nc(=O)n([C@@H]2O[C@@](CO)(CF)[C@@H](O)[C@@H]2F)cc1F [Compound 85, 4-amino-5-fluoro-1-[(2R,3S,4R,5R)-3-fluoro-5-(fluoromethyl)-4-hydroxy-5-(hydroxymethyl)oxolan-2-yl] pyrimidin-2-one]
22 | < 6.00 | Nc1nc(=O)n([C@@H]2O[C@@](CO)(CI)[C@@H](O)[C@@H]2F)cc1F [Compound 129, 4-amino-5-fluoro-1-((2R,3S,4R,5R)-3-fluoro-4-hydroxy-5-(hydroxymethyl)-5-(iodomethyl)tetrahydrofuran-2-yl)pyrimidin-2(1H)-one]
23 | ≥ 7.30 | C#C[C@]1(CO)O[C@@H](n2cc(F)c(N)nc2=O)[C@@H](F)[C@@H]1O [Compound 112, 4-amino-1-((2R,3S,4R,5R)-5-ethynyl-3-fluoro-4-hydroxy-5-(hydroxymethyl)tetrahydrofuran-2-yl)-5-fluoropyrimidin-2(1H)-one]
24 | 7.00 to 7.30 | Nc1ccn([C@H]2C[C@H](O)[C@](CO)(CF)O2)c(=O)n1 [Compound 45, 4-amino-1-((2R,4S,5R)-5-(fluoromethyl)-4-hydroxy-5-(hydroxymethyl)tetrahydrofuran-2-yl)pyrimidin-2(1H)-one]

Same assay, conditions: HeLa L1 artificial-intron reporter cells, doxycycline 500 ng/mL, 72 h, numeric bounds

Row | pIC50 | SMILES
25 | < 4.52 | O=c1ccn([C@H]2C[C@H](O)[C@](CO)(CCl)O2)c(=O)[nH]1 [Compound 34, 1-((2R,4S,5R)-5-(chloromethyl)-4-hydroxy-5-(hydroxymethyl)tetrahydrofuran-2-yl)pyrimidine-2,4(1H,3H)-dione]
26 | < 4.52 | Nc1nc(=O)n([C@H]2C[C@H](O)[C@](CO)(CCl)O2)cc1C(F)(F)F [Compound 71, 4-amino-1-((2R,4S,5R)-5-(chloromethyl)-4-hydroxy-5-(hydroxymethyl)tetrahydrofuran-2-yl)-5-(trifluoromethyl)pyrimidin-2(1H)-one]
